Where two headings read alike, the source gives them in different places. Where a SMILES comes first, the peptide text is derived from it. Where no end group is shown, it is not given here.

Experiment [1] has as its target T1, p34^cdc2 (Homo sapiens, UniProt P06493). The experiment can be described thus: Histone H1 kinase activity of p107 30mer-sepharose bound versus immunoprecipitated p34^cdc2. It counts as biochemical. Set-up: endogenous in cells; host or cells: HeLa. The method, then:
(§1) Assay of p34^cdc2 Kinase Activity: Histone H1 kinase reactions were performed in 50 mM Tris, pH 8.0, 10 mM MgCl2, 0.5 mM DTT, 1 mM EGTA plus 0.1 mM ATP, 1 μCi γ-[^32 P]-ATP and 10 μg histone H1 (Boeringer Mannheim), and a source of p34^cdc2. Reactions were incubated at 30° C. for 20 minutes and stopped by the addition of protein gel sample buffer. Kinase reactions were separated by SDS-PAGE (12.5% gel). The bands were detected by autoradiography and the amount of ^32 P incorporated was quantitated using an Ambis Radioanalytic Imaging System.
In order to examine the effect of binding of p34^cdc2 to p107 30mer-sepharose on p34^cdc2 kinase activity, histone H1 kinase activities associated with p107 30mer-sepharose and immunoprecipitated p34^cdc2 were compared as follows. p34^cdc2 was bound to p107 30mer-sepharose as described in Example 2. Histone H1 kinase reactions were performed using either immunoprecipitated or p107 30mer-sepharose bound p34^cdc2. The amount of p34^cdc2 bound to p107 30mer-sepharose was compared with that contained within the immune complex by western blot. Two times the amount of immunoprecipitated p34^cdc2 used in the kinase reaction was blotted to facilitate easier detection. The amount of p34^cdc2 associated with the p107 30mer-sepharose was determined by densitometry to be ≥50 time greater than contained within the immune complexes.

For experiment [2], the target named is T1, p34^cdc2. Briefly: Peptide inhibition of p34^cdc2 immune complex histone H1 kinase activity. Set-up: endogenous in cells; host or cells: HeLa. It counts as biochemical. To be noted: for inhibition at 50 µM: 50 μM peptide, p34^cdc2 immune complex from HeLa cells, histone H1 substrate, read-out: p34^cdc2 Inhib. (%). The method, then: (§2) HeLa Cell Lysates: HeLa cell extracts served as a source of p34^cdc2 and p33^cdk2 and were prepared as follows. HeLa cells were lysed in 20 mM N-[2-hydroxyethyl]piperazine-N'-[2-[…]] (HEPES), pH 7.0, 150 mM NaCl, 5 mM sodium vanadate, 10 mM Na4 P2 O7, 1 mM ZnCl2, 2 mM ethylene-diaminetetraacetic acid (EDTA), 2 mM ethylene glycol-bis(β-aminoethyl ether)-N,N,N',N'-tetraacetic acid (EGTA), 1 mM dithiothreitol (DTT), 0.25% (v:v) NP-40, 1 mM Benzamidine, 1 mM phenylmethylsulfonyl fluoride (PMSF) and 20 μg/ml each: N2 S2 O3, leupeptin, Antipan and Pepstatin, followed by centrifugation to remove cell debris.
Immunoprecipitation of p34^cdc2 : Immunoprecipitation of p34^cdc2 from HeLa cell extracts was performed using previously reported procedures (Harlow et al. (1988) in: Antibodies: A Laboratory Manual, ed. Harlow and Lane, Cold Spring Harbor: Cold Spring Harbor Laboratory, pp 421-470) and anti-p34^cdc2 antibody, G6 (Gibco, BRL). Immunoprecipitation by this method yields an activated kinase complex (Draetta et al. (1988), Cell 54:17-26).
as §1
As a further test of the association of p107 with p34^cdc2, and to define the minimal sequence necessary for interaction with p34^cdc2, the effect of p107 peptides on the p34^cdc2 immune complex histone H1 kinase activity was assessed. Both amino- and carboxy-terminal deletions were introduced into the original 30 amino acid peptide (see Table 1). The peptides were synthesized by standard methods and purified by HPLC. Immune complexes were formed as described in Example 4 and resuspended in kinase buffer plus 50 μM of the respective peptide solubilized in N,N-dimethylformamide, or an equal volume of solvent. After incubating the reactions for 15 minutes on ice, histone H1 and γ-[^32 P]-ATP were added and the kinase assays were performed and quantitated as described in Example 4.
The binding affinity of the 9mer peptide for p34^cdc2 was approximated by relating the percent inhibition of histone H1 kinase activity to peptide concentration. Reactions were performed as described in Example 4. The percent inhibition was quantitated using an Ambis Radioanalytic Imaging System. The percent inhibition was plotted versus the peptide concentration. In calculating a binding constant, it was assumed that the concentration of substrate and peptide were in vast excess of the p34^cdc2 protein, which was assumed to be limiting in the reaction.

Experiment [3] concerns the target T1, p34^cdc2. Briefly: ELISA based competition assay: p34^cdc2 kinase from cell extracts binding to a p107 30mer coated plate. Details: endogenous in cells; HeLa per the general methods. The text has this:
An ELISA based assay was developed to measure the activity of p107 peptides and their derivatives. A 96-well cluster plate coated with the p107 30mer binds to p34^cdc2 kinase from cell extracts. This binding is easily detectable with anti-p34^cdc2 antibodies and can be used to quantitate the affinity of the p107 wild type and mutant peptides for the p34^cdc2 kinase in addition to the kinase inhibition assay described in Example 7. A summary of all modifications to the original p107 peptides and their effect on binding and kinase inhibition is presented in Table 1. The affinity of the p107 9mer peptide for p34^cdc2 kinase is approximately 10 μM as measured by the ELISA based competition assay, which is in agreement with the binding constant approximated from the kinase inhibition assay as described in Example 7.
For orientation: ELISA stands for enzyme-linked immunosorbent assay.

Another experiment deals with T2, HPV18-E7 protein (Human papillomavirus type 18, UniProt P06788).
T2 construct: made in house
T2 sequence (P06788 whole entry): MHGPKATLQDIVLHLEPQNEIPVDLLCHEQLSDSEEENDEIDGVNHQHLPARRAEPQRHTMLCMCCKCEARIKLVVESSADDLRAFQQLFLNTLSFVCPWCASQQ
Briefly: biochemical. It counts as binding. The method, then: The association of bacterially expressed HPV18-E7 protein with the p107 30mer peptide was analyzed using an ELISA assay. In the experiment depicted in FIG. 3A, a 96-well cluster plate was coated with p107 30mer peptide and incubated with increasing concentration of a MBP-E7 fusion protein or the MBP protein as a control. […] In the experiment depicted in FIG. 3B, MBP-E7 fusion protein (100 ng) was incubated with a p107 30mer peptide-coated plate in the presence of increasing concentrations of free p107 9mer peptide.

For experiment [4], the target named is T1, p34^cdc2. Briefly: p107 30mer-sepharose pull-down from HeLa cell lysate, western blot with anti-p34^cdc2 antibody. It counts as binding. Details: endogenous in cells; host or cells: HeLa. The method, then: as §2
In order to test whether the α-helix II domain is involved in the interaction of Rb, p107 and cyclin E with p34^cdc2, a 30 amino acid peptide from p107 (residues 692-721: […] [SEQ ID NO:11]) encompassing α-helix II, was synthesized and assayed for its ability to associate with p34^cdc2. […] The concentration of 30mer linked to the bead was 0.85 μmole/ml as determined by HPLC. […] The bound proteins were eluted with increasing concentrations of NaCl, separated by sodium dodecyl sulfate-polyacrylamidegel electrophoresis (SDS-PAGE) (12.5% gel) and transferred to polyvinylidene difluoride (PVDF) membranes. p34^cdc2 was detected by probing the membrane with anti-p34^cdc2 antibody, G6 (Gibco, BRL) (see, Draetta et al. (1988), supra).
For orientation: Immunoblotting shows a protein as a band on a membrane.

The next experiment deals with HPV16-E7 protein (Human papillomavirus type 16, UniProt P03129). To be noted: CaSki cell extract, western blot. From the text:
Rb and p107 form specific complexes with the adenovirus E1A oncoprotein and Rb forms a similar complex with the E7 oncoprotein human papillomavirus (HPV). In order to determine whether the p107 30mer peptide domain and Rb may interact with other tumor suppressor proteins or other cellular and viral ligands, p107 30mer peptide binding to cellular and bacterially expressed human papillomavirus (HPV)-E7 protein was examined. p107 30 amino acid peptide-sepharose, prepared as described in Example 2, was incubated with CaSki cell (HPV-16 positive cervical carcinoma) extract and assayed for the binding of E7 protein.

The mark [5] stands for this setting: Table 1 binding, assay not given, taken as ELISA competition for p34^cdc2 binding, read-out: IC50.

T1 sequence (P06493 whole entry): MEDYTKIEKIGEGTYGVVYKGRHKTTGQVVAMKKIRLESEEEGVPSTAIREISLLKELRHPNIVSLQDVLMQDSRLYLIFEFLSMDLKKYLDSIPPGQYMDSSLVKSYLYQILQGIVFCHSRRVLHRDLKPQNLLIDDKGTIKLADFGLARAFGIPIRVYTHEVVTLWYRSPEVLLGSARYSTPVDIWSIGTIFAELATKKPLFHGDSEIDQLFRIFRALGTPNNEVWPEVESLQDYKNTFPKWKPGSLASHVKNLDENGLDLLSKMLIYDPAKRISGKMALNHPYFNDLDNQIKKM
Chain of HPV16-E7 protein (P03129 whole entry, the tested form may be a part): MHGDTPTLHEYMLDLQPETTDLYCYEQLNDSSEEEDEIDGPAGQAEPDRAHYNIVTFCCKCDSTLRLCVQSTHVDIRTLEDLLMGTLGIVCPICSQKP

Turning to `CC[C@H](C)[C@H](NC(=O)[C@H](Cc1ccc(O)cc1)NC(=O)[C@H](Cc1ccccc1)NC(=O)[C@H](C)NC(=O)[C@H](CS)NC(=O)[C@H](CC(C)C)NC(=O)[C@H](CC(C)C)NC(=O)[C@H](CC(C)C)NC(=O)[C@H](CCC(N)=O)NC(=O)[C@H](CC(=O)O)NC(=O)[C@H](CC(C)C)NC(=O)[C@H](Cc1c[nH]cn1)NC(=O)[C@H](CCCNC(=N)N)NC(=O)[C@H](CC(=O)O)NC(=O)[C@H](CCCCN)NC(=O)[C@H](CCSC)NC(=O)[C@H](CC(C)C)NC(=O)[C@H](CC(=O)O)NC(=O)[C@@H]1CCCN1C(=O)[C@H](CS)NC(=O)[C@H](Cc1c[nH]cn1)NC(=O)[C@@H](NC(=O)[C@H](CC(C)C)NC(=O)[C@@H](NC(=O)[C@H](Cc1ccccc1)NC(=O)[C@H](CCC(=O)O)NC(=O)[C@@H](N)Cc1ccccc1)[C@@H](C)O)C(C)C)C(=O)N[C@@H](CCSC)C(=O)N[C@@H](C)C(=O)N[C@@H](CCCCN)C(=O)O` [30mer] (H-FEFTLVHCPDLMKDRHLDQLLLCAFYIMAK-OH), the “specific activity of peptide bound enzyme relative to the specific activity of the immune complex” value on p34^cdc2 [1] (normalized for the amount of p34^cdc2 protein) was 1.4%.
Turning to `C[C@H](NC(=O)[C@@H](N)CS)C(=O)N[C@@H](Cc1ccccc1)C(=O)N[C@@H](Cc1ccc(O)cc1)C(=O)O` [NC4mer, CAFY] (H-CAFY-OH), the inhibition at 50 µM on p34^cdc2 [2] stood at 0%.
For the molecule AFYIMAK [N7mer, AFYIMAK], the inhibition at 50 µM at p34^cdc2 [2] turned out to be 0%.
On to CAFYI [NC5mer, CAFYI], for which the inhibition at 50 µM on p34^cdc2 [2] came out at 82%. Moreover, the IC50 at p34^cdc2 [3] (setting [5]) was 13 µM.
CAFYIGSPKK [NC5mer-SPKK, CAFYIGSPKK]: on p34^cdc2 [2], the inhibition at 50 µM was 80%.
Still for that read-out and setting: the same measure for DLMKDRHLDQLLLCAFYIMAK [21mer]: 70%; for “KDRHLDQLLLCAFYIMAK [18mer, KDRHLDQLLLCAFYIMAK]”: 80%.
As to LCAAYIMAK [715FA, LCAAYIMAK], the inhibition at 50 µM on p34^cdc2 [2] is 0%. In addition, at p34^cdc2 [3] (setting [5]), the IC50 is greater than 100 µM.
In the case of LCAFAIMAK [716YA, LCAFAIMAK], at p34^cdc2 [2], the inhibition at 50 µM is 0%. The IC50 at p34^cdc2 [3] (setting [5]) came out at 40 µM.
On to LCAFFIMAK [716YF, LCAFFIMAK], for which, on p34^cdc2 [2], the inhibition at 50 µM is 80%. Further, at p34^cdc2 [3] (setting [5]), the IC50 amounted to 25 µM.
Regarding LCAFY [C5mer, LCAFY], the inhibition at 50 µM on p34^cdc2 [2] was found to be 0%.
On the same count and under the same terms, the same measure for LCAFYI [C6mer, LCAFYI]: 79%.
Same read-out and setting: the same measure for LCAFYIM [C7mer, LCAFYIM]: 70%.
On to LCAFYIMAK [9mer, LCAFYIMAK], for which the Kd on HPV18-E7 protein was roughly 0.001 µM; on p34^cdc2 [2] (percent inhibition plotted versus peptide concentration, FIG. 2, read-out: kd calculated from the point of 50% inhibition of histone H1 kinase activity) it was roughly 10 µM; at p34^cdc2 [3] (ELISA based competition assay, read-out: affinity for p34^cdc2 kinase), roughly 10 µM. For the same molecule, the inhibition at 50 µM on p34^cdc2 [2] came out at 90%. Besides, the IC50 at p34^cdc2 [3] (setting [5]) amounted to 9 µM.
For LCAFYIMQK [719AQ, LCAFYIMQK], the inhibition at 50 µM on p34^cdc2 [2] is 75%.
Turning to LCAFYKMAK [717IK, LCAFYKMAK], the inhibition at 50 µM on p34^cdc2 [2] came out at 0%. Also, the 50% inhibitory concentration (IC50) at p34^cdc2 [3] (setting [5]) was greater than 100 µM.
For LCAKYIMAK [715FK, LCAKYIMAK] the same measures were 0% and greater than 100 µM.
For LCAYYIMAK [715FY, LCAYYIMAK], in that order: 20% and 45 µM.
Turning to LCEFYIMAK [714AE, LCEFYIMAK], the inhibition at 50 µM on p34^cdc2 [2] was 0%. Also, at p34^cdc2 [3] (setting [5]), the IC50 was found to be 23 µM.
In the case of LDQLLLCAFYIMAK [14mer, LDQLLLCAFYIMAK], the inhibition at 50 µM on p34^cdc2 [2] came to 80%.
On to LFAFYIMAK [713CF, LFAFYIMAK], for which the inhibition at 50 µM on p34^cdc2 [2] came to 60%. The “decrease in the peptide's ability to inhibit histone H1 kinase activity” value at p34^cdc2 [2] (versus 9mer) was 30%. For the same molecule, the IC50 at p34^cdc2 [3] (setting [5]) is 15 µM.
On to PKKKRKVCAFYI [SV-NC5mer, PKKKRKVCAFYI], for which, on p34^cdc2 [2], the inhibition at 50 µM was 0%.
The same measure, in the same setting: the same measure for RKRCAFYI [PKG-NC5mer, RKRCAFYI]: 0%.
For the molecule RRCAFYI [RR-NC5mer, RRCAFYI], on p34^cdc2 [2], the inhibition at 50 µM is 0%.
Same read-out and setting: the same measure for SPKKGCAFYI [SPKK-NC5mer, SPKKGCAFYI]: 0%.
Turning to YIMAK [N5mer, YIMAK], on p34^cdc2 [2], the inhibition at 50 µM came to 0%. The same molecule came in with an IC50 on p34^cdc2 [3] greater than 100 µM.
“p107 30mer-sepharose: p107 30mer covalently linked to CH-activated sepharose 4B (FEFTLVHCPDLMKDRHLDQLLLCAFYIMAK; cysteine pairing not given here; also: covalently linked to CH-activated sepharose 4B)”: in the experiment with p34^cdc2 [4] (HeLa cell lysate, western blot), the “binding to p34^cdc2” value is given as “binds”. Further, the “stability of the complex with p34^cdc2 to NaCl elution” value in the experiment with p34^cdc2 [4] (elution with increasing concentrations of NaCl) was “stable to 2M NaCl”. Further, the “amount of p34^cdc2 associated relative to that within the immune complexes” value with p34^cdc2 [1] (western blot densitometry) is reported as no less than 50 time greater. In the experiment with HPV16-E7 protein, the “binding to HPV16-E7 protein” value was “did bind”.

The IC50 is the point on the concentration scale where inhibition reaches its midpoint.

The record behind these values is patent publication US5625031A, “Peptide inhibitors of the p33^cdk2 and p34^cdc2 cell cycle regulatory kinases and human papillomavirus E7 oncoprotein” (Bristol-Myers Squibb Company, priority 1994, dated 1997).
